# Earlier results in patent US6642243B1, “Migraine medicine and method for treating same” (priority 1999, dated 2003).
# Key:
# [1] = system: individuals who take these agents; conditions: treatment and prophylaxis of migraines
# migraine patients = conditions: pretreatment with 2 mg/kg; p<0.05
# cerebral blood flow = conditions: in humans
smiles,measurement,setting,value
C[C@@H](CO)NC(=O)[C@@H]1C=C2c3cccc4[nH]cc(c34)C[C@H]2N(C)C1 [ergonovine],"significant toxicity, share of the individuals who take these agents",[1],~40%
"CN[C@@H](C)[C@@H](O)c1ccccc1 [Pseudoephedrine, pseudoephedrine]",effects of increased postural hypotension seen in migraine patients versus normal patients,migraine patients,abolished
same,effects of lower blood pressure after sustained handgrip seen in migraine patients versus normal patients,migraine patients,abolished
"Cn1c(=O)c2c(ncn2C)n(C)c1=O [Caffeine, caffeine]",cerebral blood flow,cerebral blood flow,reduce cerebral blood flow
CC[C@@H](CO)NC(=O)[C@@H]1C=C2c3cccc4c3c(cn4C)C[C@H]2N(C)C1 [methysergide],"significant toxicity, share of the individuals who take these agents",[1],~40%
